# In patent publication US20140243403A1, “TREATING COLORECTAL, PANCREATIC, AND LUNG CANCER” (The General Hospital Corporation, priority 2011, published 2014):
# Legend:
# [1] = system: TOP-FLASH reporter in YAPC cells; assay: TOP-FLASH reporter in YAPC PDAC cells; assay type: cell-based; details: KRAS-dependent YAPC cells
# Excerpt: (§1) (E) TOP-FLASH reporter activity in KRAS mutant PDAC cell lines following inhibition of GSK-3 kinase with increasing concentrations of the small molecule inhibitor BIO. PANC-1 are KRAS-independent cells and YAPC are KRAS-dependent cells. Luminescence counts (photons/sec) are plotted on the y-axis. Data are representative of three independent experiments+/−SEM.
# (§2) (F) TOP-FLASH reporter dose-response relationships in PANC-1 and YAPC cells following combined treatment with GSK-3 and TAK1 inhibitors (BIO and 5Z-7-Oxozeaenok respectively). Luminescence counts (photons/sec) are plotted on the y-axis. Data are represented as the means of triplicates+/−SEM.
# (§3) To further test the role of Wnt signaling in this context, experiments were performed using two KRAS mutant pancreatic cancer (PDAC) cell lines, PANC-1 and YAPC, which are APC wild-type. PANC-1 cells are KRAS-independent, whereas YAPC cells are KRAS-dependent, a distinction that has been linked to increased KRAS signaling in YAPC cells (Singh et al., 2009). […] In contrast, PANC-1 cells undergo stronger induction of TOP-FLASH activity with combined GSK-3 and TAK1 inhibition (FIG. 11F, […]). […] Finally, a constitutively-activated mutant of β-catenin (CTNNB1-CA) containing S33Y and S45A missense mutations was introduced into KRAS-dependent SW620 cells. This mutant caused partial losses in both KRAS and TAK1 dependencies (FIGS. 13A-C). […]
# [2] = system: TOP-FLASH reporter in PANC-1 cells; assay: TOP-FLASH reporter in PANC-1 PDAC cells; assay type: cell-based; details: KRAS-independent PANC-1 cells
# Excerpt: as §1, §2, §3
smiles,measurement,setting,value
O=C1Nc2cc(Br)ccc2/C1=C1/Nc2ccccc2/C1=N\O [BIO],TOP-FLASH reporter induction,[1],"strong, dose-dependent TOP-FLASH reporter induction"
same,TOP-FLASH reporter induction,[2],weak induction
